In general, EC50 refers to the concentration giving half of the maximal effect. A low value points to a more potent agent. What is called IC50 is the concentration needed to halve the response being measured. Higher therefore signals weaker potency.

This note sets out measurements from patent publication US20240043427A1 (Gilead Sciences, Inc., priority 2020, published 2024).

Structures are written as SMILES.

The target of test [1] is T1, CD73 (Homo sapiens (Human), UniProt P21589). In words: MDA-MB-231 Cell Based CD73 Activity Assay (DMEM). The following applies: MDA-MB-231-GFP cells, DMEM medium with 10% human plasma, 200 uM AMP.
T1 sequence (P21589 27-574): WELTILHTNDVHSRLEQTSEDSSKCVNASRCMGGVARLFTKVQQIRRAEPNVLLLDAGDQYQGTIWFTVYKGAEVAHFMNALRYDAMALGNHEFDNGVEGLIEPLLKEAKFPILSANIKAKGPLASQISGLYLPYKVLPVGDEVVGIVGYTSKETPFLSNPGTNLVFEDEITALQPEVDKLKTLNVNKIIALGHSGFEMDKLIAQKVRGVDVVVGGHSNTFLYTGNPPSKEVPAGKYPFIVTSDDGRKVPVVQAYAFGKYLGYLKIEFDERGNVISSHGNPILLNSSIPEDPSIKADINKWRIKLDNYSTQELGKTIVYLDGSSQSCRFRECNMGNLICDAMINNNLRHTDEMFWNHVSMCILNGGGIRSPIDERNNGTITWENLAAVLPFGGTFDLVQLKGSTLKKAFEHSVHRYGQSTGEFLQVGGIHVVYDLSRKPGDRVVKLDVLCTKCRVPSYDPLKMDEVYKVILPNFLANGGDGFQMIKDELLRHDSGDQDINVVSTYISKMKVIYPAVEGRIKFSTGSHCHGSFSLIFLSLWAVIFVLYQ
Test [2] has as its target T1, CD73. The test is classed as biochemical. The following applies: 1 mM NaH2PO4 in enzyme buffer, CD73 0.3 nM, AMP 15 uM.

Compound `C#CC1CCN(c2cc(-c3c[nH]c(=O)[nH]c3=O)nn3ccnc23)C1` (centres unmarked) [Example 684, 5-(8-(3-ethynylpyrrolidin-1-yl)imidazo[1,2-b]pyridazin-6-yl)pyrimidine-2,4(1H,3H)-dione] displayed an EC50 in test [1] of 5.84 nM. In test [2], this compound showed an IC50 of 1.29 nM.

In test [1], `CC(C)(O)C#Cc1cc(-c2c[nH]c(=O)[nH]c2=O)nn2ccnc12` [Example 685, 5-(8-(3-hydroxy-3-methylbut-1-yn-1-yl)imidazo[1,2-b]pyridazin-6-yl)pyrimidine-2,4(1H,3H)-dione] came in with an EC50 of 551 nM. In addition, the IC50 in test [2] was greater than 250 nM.

`CC(C)(C)C#Cc1cc(-c2c[nH]c(=O)[nH]c2=O)nn2ccnc12` [Example 686, 5-(8-(3,3-dimethylbut-1-yn-1-yl)imidazo[1,2-b]pyridazin-6-yl)pyrimidine-2,4(1H,3H)-dione] came in with an EC50 in test [1] of 285 nM. The compound also returned an IC50 in test [2] of 45 nM.

In test [1], `O=c1[nH]cc(-c2cc(OCC(F)(F)CO)c3nccn3n2)c(=O)[nH]1` [Example 687, 5-(8-(2,2-difluoro-3-hydroxypropoxy)imidazo[1,2-b]pyridazin-6-yl)pyrimidine-2,4(1H,3H)-dione] yielded an EC50 of 53.5 nM. In addition, in test [2], 8.72 nM corresponded to half-maximal inhibition (IC50).

`CCC(F)(F)COc1cc(-c2c[nH]c(=O)[nH]c2=O)nn2ccnc12` [Example 688, 5-(8-(2,2-difluorobutoxy)imidazo[1,2-b]pyridazin-6-yl)pyrimidine-2,4(1H,3H)-dione]: in test [1], a half-maximal response (EC50) required 34.2 nM. Inhibition in test [2] was half-maximal at 7.02 nM (IC50).

As for `O=c1[nH]cc(-c2cc(OCC(F)(F)C3CC3)c3nccn3n2)c(=O)[nH]1` [Example 689, 5-(8-(2-cyclopropyl-2,2-difluoroethoxy)imidazo[1,2-b]pyridazin-6-yl)pyrimidine-2,4(1H,3H)-dione], the EC50 in test [1] was 10.6 nM. Moreover, the IC50 in test [2] worked out at 3.02 nM.

In test [1], `O=c1[nH]cc(-c2cc(OCC(F)(F)C(F)(F)F)c3nccn3n2)c(=O)[nH]1` [Example 690, 5-(8-(2,2,3,3,3-pentafluoropropoxy)imidazo[1,2-b]pyridazin-6-yl)pyrimidine-2,4(1H,3H)-dione] had an EC50 of 21.9 nM. In test [2], this compound gave a concentration for half-maximal inhibition (IC50) of 12.7 nM.

The compound `C[C@H](COc1cc(-c2c[nH]c(=O)[nH]c2=O)nn2ccnc12)c1ccccc1` [Example 691, (S)-5-(8-(2-phenylpropoxy)imidazo[1,2-b]pyridazin-6-yl)pyrimidine-2,4(1H,3H)-dione] had an EC50 in test [1] of 349 nM. The same compound returned an IC50 in test [2] of 43.3 nM.

Regarding `O=c1[nH]cc(-c2cc(OCC(F)(F)c3ccccn3)c3nccn3n2)c(=O)[nH]1` [Example 692, 5-(8-(2,2-difluoro-2-(pyridin-2-yl)ethoxy)imidazo[1,2-b]pyridazin-6-yl)pyrimidine-2,4(1H,3H)-dione], it took 23.1 nM to reach a half-maximal effect in test [1] (EC50). In test [2], this compound gave an IC50 of 3.2 nM.

In test [1], `Cn1ccnc1C(F)(F)COc1cc(-c2c[nH]c(=O)[nH]c2=O)nn2ccnc12` [Example 693, 5-(8-(2,2-difluoro-2-(1-methyl-1H-imidazol-2-yl)ethoxy)imidazo[1,2-b]pyridazin-6-yl)pyrimidine-2,4(1H,3H)-dione] returned an EC50 of 49.4 nM. Further, 9.78 nM corresponded to half-maximal inhibition in test [2] (IC50).

Regarding `CC(C)NC(=O)OCC(F)(F)COc1cc(-c2c[nH]c(=O)[nH]c2=O)nn2ccnc12` [Example 694, 3-((6-(2,4-dioxo-1,2,3,4-tetrahydropyrimidin-5-yl)imidazo[1,2-b]pyridazin-8-yl)oxy)-2,2-difluoropropyl isopropylcarbamate], the midpoint of the response in test [1], the EC50, lay at 0.23 nM. Besides, in test [2], the 50% inhibitory concentration (IC50) turned out to be 0.61 nM.

Consider `O=c1[nH]cc(-c2cc(OCC(F)(F)COc3ccccn3)c3nccn3n2)c(=O)[nH]1` [Example 695, 5-(8-(2,2-difluoro-3-(pyridin-2-yloxy)propoxy)imidazo[1,2-b]pyridazin-6-yl)pyrimidine-2,4(1H,3H)-dione], for which a half-maximal response in test [1] (EC50) required 17.4 nM. For the same compound, the 50% inhibitory concentration (IC50) in test [2] was found to be 1.82 nM.

Regarding `O=C(OCC(F)(F)F)OCC(F)(F)COc1cc(-c2c[nH]c(=O)[nH]c2=O)nn2ccnc12` [Example 696, 3-((6-(2,4-dioxo-1,2,3,4-tetrahydropyrimidin-5-yl)imidazo[1,2-b]pyridazin-8-yl)oxy)-2,2-difluoropropyl (2,2,2-trifluoroethyl) carbonate], a half-maximal effect in test [1] (EC50) was put at 105 nM. The same compound yielded an IC50 in test [2] of 0.51 nM.

`O=c1[nH]cc(-c2cc([C@H]3C[C@@H]3c3ccc4c(F)nn(CC(F)(F)F)c4c3)c3ncc(F)n3n2)c(=O)[nH]1` [Example 697, 5-(3-fluoro-8-((1S,2S)-2-(3-fluoro-1-(2,2,2-trifluoroethyl)-1H-indazol-6-yl)cyclopropyl)imidazo[1,2-b]pyridazin-6-yl)pyrimidine-2,4(1H,3H)-dione] gave an EC50 in test [1] of 0.27 nM. In test [2], this compound showed an IC50 of 0.65 nM.

In test [1], `CC1(C)C(=O)N(CC(F)(F)F)c2cc([C@H]3C[C@@H]3c3cc(-c4c[nH]c(=O)[nH]c4=O)nn4ccnc34)cnc21` [Example 698, 5-(8-((1S,2S)-2-(3,3-dimethyl-2-oxo-1-(2,2,2-trifluoroethyl)-2,3-dihydro-1H-pyrrolo[3,2-b]pyridin-6-yl)cyclopropyl)imidazo[1,2-b]pyridazin-6-yl)pyrimidine-2,4(1H,3H)-dione] registered an EC50 of 0.81 nM. This compound came in with a 50% inhibitory concentration (IC50) in test [2] of 3.84 nM.

`CC1(C)C(=O)N(CC(F)(F)F)c2cc([C@H]3C[C@@H]3c3cc(-c4c[nH]c(=O)[nH]c4=O)nn4ccnc34)cnc21` [Example 699, 5-(8-((1S,2S)-2-(3,3-dimethyl-2-oxo-1-(2,2,2-trifluoroethyl)-2,3-dihydro-1H-pyrrolo[3,2-b]pyridin-6-yl)cyclopropyl)imidazo[1,2-b]pyridazin-6-yl)pyrimidine-2,4(1H,3H)-dione] gave a half-maximal effective concentration (EC50) in test [1] of 0.56 nM. This compound also came in with an IC50 in test [2] of 3.15 nM.

For `CC1(C)C(=O)N(CC(F)(F)F)c2cc([C@H]3C[C@@H]3c3cc(-c4c[nH]c(=O)[nH]c4=O)nn4ccnc34)ncc21` [Example 700, 5-(8-((1S,2S)-2-(3,3-dimethyl-2-oxo-1-(2,2,2-trifluoroethyl)-2,3-dihydro-1H-pyrrolo[3,2-c]pyridin-6-yl)cyclopropyl)imidazo[1,2-b]pyridazin-6-yl)pyrimidine-2,4(1H,3H)-dione], a half-maximal effect in test [1] (EC50) was put at 0.54 nM. The compound further yielded a concentration for half-maximal inhibition (IC50) in test [2] of 4.37 nM.

In test [1], `O=c1[nH]cc(-c2cc([C@H]3C[C@@H]3c3ccc4c(C(F)(F)F)cn(CC(F)(F)F)c4n3)c3nccn3n2)c(=O)[nH]1` [Example 701, 5-(8-((1S,2S)-2-(1-(2,2,2-trifluoroethyl)-3-(trifluoromethyl)-1H-pyrrolo[2,3-b]pyridin-6-yl)cyclopropyl)imidazo[1,2-b]pyridazin-6-yl)pyrimidine-2,4(1H,3H)-dione] displayed an EC50 of 2.56 nM. In test [2], the IC50 worked out at 3.04 nM.

With `CC1(C)C(=O)N(CC(F)(F)F)c2cc([C@H]3C[C@@H]3c3cc(-c4c[nH]c(=O)[nH]c4=O)nn4c(F)cnc34)ccc21` [Example 702, 5-(8-((1S,2S)-2-(3,3-dimethyl-2-oxo-1-(2,2,2-trifluoroethyl)indolin-6-yl)cyclopropyl)-3-fluoroimidazo[1,2-b]pyridazin-6-yl)pyrimidine-2,4(1H,3H)-dione], the midpoint of the response in test [1], the EC50, lay at 0.26 nM. The half-inhibitory concentration (IC50) in test [2] turned out to be 1.7 nM.
